# Test results published in patent publication US20220339135A1, “COMPOSITIONS AND METHODS FOR MODULATING AN INFLAMMATORY RESPONSE” (Enzychem Lifesciences Corporation, priority 2019, published 2022).
# Values joined by “and” are separate entries in the source; they are usually repeats but may differ in a detail not shown here. Equal values may be shown once.
# Tests used:
# [1] = test system: intracellular ROS in HaCaT cells; assay: IMQ-induced intracellular ROS; format: cell-based; conditions: IMQ/PLAG treated cells
# Experimental: HaCaT cells were divided into two groups: 1) IMQ treated group and 2) IMQ/PLAG treated group. For IMQ treated group, cells were stimulated with IMQ (5 μg/ml) for 0, 2.5, 5, 7.5, 10, 15, 30, 60, 120 minutes. For IMQ/PLAG treated group, cells were pre-incubated with PLAG (100 μg/ml) for 1 hour and then stimulated with IMQ (5 μg/ml) for 0, 2.5, 5, 7.5, 10, 15, 30, 60, 120 minutes. (A) To detect ADORA2A on the membrane surface, cells were fixed with 2% paraformaldehyde (Sigma-Aldrich) and were blocked with PBS containing 1% BSA (Gibco, Waltham, Mass., USA). They were incubated with rabbit anti-ADORA2A antibody (Thermo) and Alexa488 conjugated anti-rabbit IgG (Invitrogen) without permeabilization. (B) To detect intracellular ROS, cells were treated with FITC conjugated-CM-H2DCFDA (Invitrogen, Carlsbad, Calif., USA) for 30 min before PLAG treating. For confocal microscopy analysis, cells were washed with PBS and mounted in DAPI-containing fluorescence microscopy mounting medium (Invitrogen). Samples were analyzed with a laser scanning confocal microscope (Carl Zeiss, Oberkochen, Germany).
# HMGB1 and S100A9 = assay: Radiation-induced DAMP molecules in mice serum, western blot; format: in vivo; conditions: 6.11Gy, PLAG 50, 250 mg/kg oral 3 days
# Experimental: The total-body of mice were irradiated with a gamma-ray of 6.11Gy on day 0. After that, the body weight of 1 day was measured and divided into 3 groups according to the average. PLAG (50, 250 mg/kg) or PBS was orally administered for 3 days from 1 day and sacrificed on the 3rd day. Add 3 ul serum to 97 ul of 1×SDS sample buffer and boiled for 10 min. Proteins from each sample were separated by sodium dodecyl sulfate-polyacrylamide gel electrophoresis on 8% polyacrylamide gels and the proteins were blotted onto a PVDF membrane (Millipore Corporation, Germany). The membrane was blocked with 5% non-fat dried milk (BD bioscience) in PBS containing 0.05% Tween-20 (Calbiochem) for 1 h. The membrane was incubated with anti-HMGB1 (abcam), anti-MRP14 (abcam) at 4° C. overnight. After washing with PBS containing 0.05% Tween-20, the membrane was stained with goat anti-rabbit IgG peroxidase (ENZO). Target proteins were detected with Immobilon Western Chemiluminescent HRP Substrate (Millipore Corporation).
# 5-FU-induced neutropenia = 5-FU-induced neutropenia in mice; format: in vivo; conditions: for Mean Duration of Neutropenia in Days (±SE, range) / Mean the First Day Neutropenia (ANC <500 cells/μL) (±SE, range): 5-FU 100 mg/kg
# Experimental: Male BALB/c mice (8 weeks of age) were randomly divided into 3 cohorts; control cohort (n=5), EC-18 125 mg/kg-treated cohort (n=5) and EC-18 250 mg/kg (n=5). The mice were intraperitoneally (i.p.) injected once with 100 mg/kg 5-FU to induce neutropenia, as shown in the experimental scheme (FIG. 46A). EC-18 was suspended in phosphate-buffered saline (PBS) and orally administrated at a dose of 125 or 250 mg/kg once a day, starting on the same day of 5-FU injection. The control cohort was administered PBS only during the experiment. The whole blood was collected from the orbital sinuses using EDTA-free capillary tubes (Kimble Chase Life Science and Research Products LLC, FL, USA) and collection tubes containing K3E-K3EDTA (Greiner Bio-One International, Kremsmünster, Austria). The blood cells were counted and classified by complete blood count (CBC) analysis using Mindray BC-5000 auto-hematology analyzer (Shenzhen Mindray Biomedical Electronics, Guangdong Sheng, China).
# The results were expressed as the mean±standard deviation (SD). Statistical analysis was performed using a Student's paired t-test and p values <0.05 were considered statistically significant. A […] Log-rank (Mantel-Cox) test was used to compare the duration of neutropenia and time to recovery from neutropenia between control and EC-18-treated cohorts.
# [2] = test system: chemo-radiation and PAK induced oral mucositis; assay: Chemo-radiation and PAK induced oral mucositis; format: in vivo, mice; conditions: PLAG 250 mg/kg oral daily, n=19
# Experimental: To induce immunocompromised condition in mice of CRIN group and EC-18 group, mice were administered by intraperitoneal injection with 30 mg/kg of 5-FU (Sigma) once a day for 3 days (Sigma) and five days after the experiment initiated, 1Gy of γ-radiation at once. For the EC-18 group, EC-18 (Enzychem Lifesciences, Daejeon, Republic of Korea) was orally given at a dose of 250 mg/kg once a day during the study period. The experimental schedule is described in FIG. 1. On day 6 after the experiment initiated, all the mice of 2 groups (CRIN group, and EC-18 group) were anesthetized with 2% 2, 2, 2,-tribromoethanol by intraperitoneal injection and infected with P. aeruginosa K (PAK) by syringe in the tongue. 1 day after PAK injection, the condition of the tongue and survival rate of mice were monitored and recorded.
# P. aeruginosa K was cultured in LB broth or on LB agar plates overnight at 37° C. until they were in log-phase growth. […] The bacterial pellet was suspended to the appropriated number of colony-forming unit (CFU) per milliliter in PBS, as determined by optical density and plating out a serial dilution on broth agar plates. […]
# Chemoradiotherapy induced immunocompromised mice were challenged with PAK. […] After the challenge, mice were monitored for 1 day, and the survival rate of mice was recorded.
compound,measurement,setting,value
"CCCCC/C=C\C/C=C\CCCCCCCC(=O)OC(COC(C)=O)COC(=O)CCCCCCCCCCCCCCC (racemic) [PLAG, 1-palmitoyl-2-linoleoyl-3-acetylglycerol]",ROS formation starts,[1],2.5 min
same,ROS returns to homeostatic levels,[1],10 min
same,level of HMGB1 and S100A9 induced by radiation,HMGB1 and S100A9,significantly decreased
same,"Mean Duration of Severe Neutropenia in Days (±SE, range)",5-FU-induced neutropenia; EC-18 125 mg/kg,2 (6-7) Days
same,"Mean Number of Days to Recovery - ANC ≥ 500/μL (±SE, range)",5-FU-induced neutropenia; EC-18 125 mg/kg,7.4 ± 0.55 (7-8) Days
same,"Mean Number of Days to Recovery - ANC ≥ 1000/μL (±SE, range)",5-FU-induced neutropenia; EC-18 125 mg/kg,8 ± 1.22 (7-10) Days
same,Number of Individuals of Severe Neutropenia (ANC <100 cells/μL),5-FU-induced neutropenia; EC-18 125 mg/kg,1/5
same,"Mean Duration of Neutropenia in Days (±SE, range)",5-FU-induced neutropenia; EC-18 125 mg/kg,2.6 ± 0.55 (5-8) Days
same,"Mean the First Day Neutropenia (ANC <500 cells/μL) (±SE, range)",5-FU-induced neutropenia; EC-18 125 mg/kg,5.8 ± 0.45 (5-6) days
same,Nadir of ANC,"5-FU-induced neutropenia; EC-18 125 mg/kg, 125 mg/kg",236±4.47 cells/μL and 236 ± 121.57 cells/μL
same,"Mean Duration of Severe Neutropenia in Days (±SE, range)",5-FU-induced neutropenia; EC-18 250 mg/kg,2 (6-7) Days
same,"Mean Number of Days to Recovery - ANC ≥ 500/μL (±SE, range)",5-FU-induced neutropenia; EC-18 250 mg/kg,7.6 ± 0.55 (7-8) Days
same,"Mean Number of Days to Recovery - ANC ≥ 1000/μL (±SE, range)",5-FU-induced neutropenia; EC-18 250 mg/kg,8.8 ± 1.09 (7-10) Days
same,Number of Individuals of Severe Neutropenia (ANC <100 cells/μL),5-FU-induced neutropenia; EC-18 250 mg/kg,1/5
same,"Mean Duration of Neutropenia in Days (±SE, range)",5-FU-induced neutropenia; EC-18 250 mg/kg,3.0 ± 0.71 (5-8) Days
same,"Mean the First Day Neutropenia (ANC <500 cells/μL) (±SE, range)",5-FU-induced neutropenia; EC-18 250 mg/kg,5.8 ± 0.45 (5-6) days
same,Nadir of ANC,"5-FU-induced neutropenia; EC-18 250 mg/kg, 250 mg/kg",158±11.32 cells/μL
same,time of recovery to an ANC≥500 or 1000 cells/μL,5-FU-induced neutropenia; EC-18 125 and 250 mg/kg-treated cohorts,significantly reduced
same,5-FU-induced reduction of blood monocytes,5-FU-induced neutropenia; EC-18 125 or 250mpk,remarkably mitigated
same,duration of severe neutropenia,"5-FU-induced neutropenia; EC-18, dose not split in text",2 days
same,individuals that experienced severe neutropenia (ANC<100 cells/μL),5-FU-induced neutropenia; both EC-18 125 and 250 mg/kg-treated cohorts,20%
same,survival rate after 7 days,[2],84%
